Entries after “also recorded” stand apart in the source; their conditions may differ.
Columns and labels:
[1] = biological target: T1, αB-crystallin R120G mutant (Homo sapiens, UniProt P02511, R120G); assay: Negative-stain EM of aggregates treated with sterol in liposome; type: biochemical; conditions: negatively stained EM
T1 construct: made in house
T1 sequence (P02511 1-175 R120G): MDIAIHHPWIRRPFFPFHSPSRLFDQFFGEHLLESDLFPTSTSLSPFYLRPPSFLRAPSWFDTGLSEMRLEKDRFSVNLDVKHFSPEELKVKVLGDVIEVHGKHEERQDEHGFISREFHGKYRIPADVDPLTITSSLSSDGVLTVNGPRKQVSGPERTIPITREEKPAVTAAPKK
Description: Representative negatively stained EM pictures of the aggregates of αB-crystallin R120G mutant treated by liposome, lanosterol in liposome and cholesterol in liposome, respectively. The EM samples were stained by 1.25% uranyl acetate.
Quantitative analysis was performed by calculating the number of particles with length over 50 nm from six randomly picked viewing field. Each viewing field contained 30-50 particles.
The aggregates of the WT and mutated αA- and αB-crystallin proteins were obtained by heating the proteins solutions containing 1 M guanidine chloride (ultrapure, Sigma) with a concentration of 5 mg/ml at 60° C. for 48 h. The aggregates of the WT and mutated β- and γ-crystallins were prepared by heating the protein solutions at pH 3 and 37° C. for 48 h. The formation of aggregates was confirmed by turbidity (absorbance at 400 nm) and transmission electron microscope (EM) measurements. The preformed aggregates were resuspended in 20 mM PBS with a final concentration of 0.1 mg/ml (approximately 5 μM). The resuspended aggregates were treated by 50 μM lanosterol or cholesterol in liposomes formed by 50 μM DPPS at 37° C. […] The soluble proteins were determined by centrifuge the protein solutions to separate the supernatant and precipitation fractions. Then the protein concentration in the supernatant was determined by the Bradford method. […]

[2] = Lanosterol eye drop formulation evaluation (stability, irritation, intraocular bioavailability); conditions: dissolved in pure aqueous solution
Description: The optimal formulation was selected based on the stability of the active ingredient, irritation, and intraocular bioavailability of the eye drops.

[3] = test system: aggregates of various WT and mutated crystallins; assay: In vitro protein assay: dissociation of preformed crystallin aggregates (turbidity, soluble protein, EM); type: biochemical; conditions: 37° C.; for dissociation of aggregates of various WT and mutated crystallins: in vitro protein assay, 50 μM sterol in 50 μM DPPS liposome
Description: Evaluation of the effect of lanosterol on the dissolution of crystallin aggregates by turbidity. Crystallin aggregates were formed by incubating 5mgml21 protein solution at 60° C. for 2 h (α-crystallins) or 37° C. for 48 h (β- and γ-crystallins) in the presence of 1M guanidine chloride. The preformed aggregates were re-suspended in PBS at a final protein concentration of 0.2 mg/ml and were treated with 500 μM sterols in 500 μM DPPC liposome and incubated at 37° C. for 24 h. Aggregates treated with 500 μM DPPC liposome only were used as the controls.
The α-crystallin aggregates were formed by incubating 5 mg/ml protein solutions at 60° C. for 48 h in the presence of 1 M guanidine chloride. The β- and γ-crystallin aggregates were prepared by incubating the protein solutions at 37° C. and pH 3 for 48 h. The preformed aggregates were re-suspended in PBS with a final protein concentration of 0.1 mg/ml. The re-suspended aggregates were treated by 50 μM sterols in 50 μM DPPS liposome and incubated at 37° C. for 144 h. The aggregates treated by 50 μM DPPS liposome were used as the controls. The supernatant and precipitation fractions were separated by centrifugation. The protein concentrations in the supernatant fraction were determined by absorbance at 280 nm and the percentages of the soluble proteins were calculated from three independent repetitions.
The recombinant his-tagged WT and mutated β- and γ-crystallin proteins were overexpressed in E. coli Rosetta and purified by Ni-NTA affinity column followed by gel filtration chromatography using the same protocol as those described elsewhere 13,14,16,18. The overexpression and purification of the non-tagged αA- and αB-crystallins were performed as described previously 19. The purity of the proteins were estimated to be above 95% as evaluated by one homogeneous band on 12.5% SDS-PAGE, 10% native-PAGE and a single peak in the size-exclusion chromatographyprofile. The protein concentration was determined according to the Bradford method by using BSA as the standard 20. All protein samples were prepared in 20 mM PBS buffer containing 150 mM NaCl, 1 mM EDTA and 1 mM DTT.
The aggregates of the WT and mutated αA- and αB-crystallin proteins were obtained by heating the proteins solutions containing 1 M guanidine chloride (ultrapure, Sigma) with a concentration of 5 mg/ml at 60° C. for 48 h. The aggregates of the WT and mutated β- and γ-crystallins were prepared by heating the protein solutions at pH 3 and 37° C. for 48 h. The formation of aggregates was confirmed by turbidity (absorbance at 400 nm) and transmission electron microscope (EM) measurements. The preformed aggregates were resuspended in 20 mM PBS with a final concentration of 0.1 mg/ml (approximately 5 μM). The resuspended aggregates were treated by 50 μM lanosterol or cholesterol in liposomes formed by 50 μM DPPS at 37° C. After 72 h treatment, the protein solutions were used for negative-stained EM observations. After 144 h incubation, the protein solutions were used for turbidity measurements and determinations of protein concentrations in the soluble fractions. The soluble proteins were determined by centrifuge the protein solutions to separate the supernatant and precipitation fractions. Then the protein concentration in the supernatant was determined by the Bradford method. The EM samples were prepared by depositing the protein solutions onto a freshly glow-discharged carbon coated copper grid. […]

[4] = test system: aA-crystallin-Y118D and aB-crystallin-R120G; assay: Dissolving of accumulated crystal protein in cells carrying two crystallin mutant plasmids; type: cell-based; conditions: 10 uM, compared with 1% DMSO solution
Description: FIG. 13. Two mutant crystal proteins were introduced into cells. The accumulated crystal protein were treated by adding different agents.
Cyclopentanoperhy drophenanthrene compounds of the present invention refers to a compound containing cyclopentanoperhy drophenanthrene skeleton structure, including its derivatives. After the two crystal protein mutant plasmid aA-crystallin-Y118D and aB-crystallin-R120G were introduced into cells, we investigated the lanosterol and its derivatives as well as cholesterol (Cholesterol) for their effects on intracellular accumulation of crystal protein. Not all cyclopentanoperhy drophenanthrene compound have the same effect.

cataractous rabbit lens = assay: Treatment of isolated cataractous rabbit lenses; conditions: isolated rabbit lenses incubated with lanosterol for 6 days
Description: FIG. 9. […] Rabbit lenses (n=13) were dissected and incubated with lanosterol for 6 days and subsequently assessed for lens clarity and transparency. Pairs of photographs of each cataractous rabbit lens showing before and after treatment with scores underneath are shown.
Rabbits were euthanized by CO2 inhalation and lenses were immediately dissected and were treated with vehicle or lanosterol dissolved in vehicle to make 5 mM solutions. Lens tissues were incubated in these solutions for 6 days in the dark at room temperature. Cataract were examined under a microscope and then photographed. Degree of cataract was assessed using AREDS cataract grading system.

In the case of `CC(C)=CCC[C@@H](C)[C@H]1CC[C@@]2(C)C3=C(CC[C@]12C)[C@@]1(C)CC[C@H](O)C(C)(C)[C@@H]1CC3` [Lanosterol], the “dissociation of aggregates formed by αB-crystallin R120G mutant (number of particles with length over 50 nm)” value [1] is reported as “dissociates the aggregates”, the “stability and solubility of lanosterol” value [2] is reported as “poor stability and low solubility” and the “dissolution of crystallin aggregates by turbidity” value ([3]; 500 μM sterols in 500 μM DPPC liposome, 24 h, 0.2 mg/ml protein) is reported as “could dissociate the aggregates”. The “dissociation of aggregates of various WT and mutated crystallins” value [3] was “can dissociate the preformed amyloid-like fibrils/aggregates”, the “dissociation of aggregates of various WT and mutated crystallins” value ([3]; listed as lanosterol) was “could dissociate the aggregates” and the “dissolving of accumulated crystal protein” value [4] was “significantly dissolve accumulated crystals protein; also recorded: significant dissolving of the accumulated crystal protein”. The “cataract severity and lens clarity” value (cataractous rabbit lens) was “reduced cataract severity and increased clarity”.
